According to ChEMBL document CHEMBL5653631, “A Potent and Selective ULK1 Inhibitor Suppresses Autophagy and Sensitizes Cancer Cells to Nutrient Stress” (iScience, 2018):
Blank lines part the entries; values can stand above or below the molecule they belong to.

Tests used:
[1] = target: Glycogen synthase kinase-3 alpha (Homo sapiens) (UniProt P49840); assay: Inhibition of human recombinant GSK3A at 500 nM in presence of ATP by radiometric assay relative to control
[2] = target: Cyclin-dependent kinase-like 1 (Homo sapiens) (UniProt Q00532); assay: Inhibition of human recombinant CDKL1 at 500 nM related to control ULK1
[3] = target: Calcium/calmodulin-dependent protein kinase type 1B (Homo sapiens) (UniProt Q6P2M8); assay: Inhibition of human recombinant CaMK1b at 15 nM in presence of ATP by radiometric assay relative to control
[4] = target: Calcium/calmodulin-dependent protein kinase type 1D (Homo sapiens) (UniProt Q8IU85); assay: Inhibition of human recombinant CaMK1d at 15 nM in presence of ATP by radiometric assay relative to control
[5] = target: Protein kinase C alpha type (Homo sapiens) (UniProt P17252); assay: Inhibition of human recombinant PKCa at 15 nM in presence of ATP by radiometric assay relative to control
[6] = target: Tyrosine-protein kinase Fer (Homo sapiens) (UniProt P16591); assay: Inhibition of human recombinant FER at 15 nM related to control ULK1
[7] = target: Vascular endothelial growth factor receptor 3 (Homo sapiens) (UniProt P35916); assay: Inhibition of human recombinant FLT4 at 15 nM related to control ULK1
[8] = target: Protein kinase C gamma type (Homo sapiens) (UniProt P05129); assay: Inhibition of human recombinant PKCg at 15 nM related to control ULK1
[9] = target: Protein kinase C theta type (Homo sapiens) (UniProt Q04759); assay: Inhibition of human recombinant PKCt at 40 nM in presence of ATP by radiometric assay relative to control
[10] = target: T1, Serine/threonine-protein kinase Chk1 (Homo sapiens) (UniProt O14757); assay: Inhibition of human recombinant CHK1 at 40 nM related to control ULK1
T1 sequence (whole entry): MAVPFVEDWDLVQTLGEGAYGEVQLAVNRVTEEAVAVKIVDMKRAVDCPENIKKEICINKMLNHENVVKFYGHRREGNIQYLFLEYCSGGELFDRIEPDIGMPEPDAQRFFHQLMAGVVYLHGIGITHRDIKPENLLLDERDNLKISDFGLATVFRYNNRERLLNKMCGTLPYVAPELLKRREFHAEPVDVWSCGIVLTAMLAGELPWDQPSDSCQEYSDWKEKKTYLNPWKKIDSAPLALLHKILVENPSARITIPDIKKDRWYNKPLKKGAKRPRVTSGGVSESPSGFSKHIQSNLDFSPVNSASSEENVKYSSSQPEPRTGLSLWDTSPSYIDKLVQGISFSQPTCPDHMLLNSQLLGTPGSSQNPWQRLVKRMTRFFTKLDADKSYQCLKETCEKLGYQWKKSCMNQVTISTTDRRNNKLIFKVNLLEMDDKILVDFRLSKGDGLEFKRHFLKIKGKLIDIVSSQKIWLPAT

[11] = target: Casein kinase II subunit alpha (Homo sapiens) (UniProt P68400); assay: Inhibition of human recombinant CK2a1 at 40 nM related to control ULK1
[12] = target: T2, Serine/threonine-protein kinase Nek2 (Homo sapiens) (UniProt P51955); assay: Inhibition of human recombinant NEK2 at 40 nM related to control ULK1
T2 sequence (whole entry): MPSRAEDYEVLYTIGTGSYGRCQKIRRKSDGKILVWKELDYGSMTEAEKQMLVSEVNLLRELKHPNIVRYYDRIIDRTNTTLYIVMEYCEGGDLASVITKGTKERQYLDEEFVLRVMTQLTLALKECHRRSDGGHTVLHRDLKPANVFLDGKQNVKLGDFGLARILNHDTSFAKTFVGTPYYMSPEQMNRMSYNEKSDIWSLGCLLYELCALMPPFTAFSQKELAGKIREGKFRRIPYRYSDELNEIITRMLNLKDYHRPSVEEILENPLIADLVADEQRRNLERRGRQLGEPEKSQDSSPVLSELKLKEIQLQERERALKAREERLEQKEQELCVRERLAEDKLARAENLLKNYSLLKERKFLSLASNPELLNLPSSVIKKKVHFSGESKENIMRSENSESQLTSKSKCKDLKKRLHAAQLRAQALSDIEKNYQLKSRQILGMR

[13] = target: T3, TGF-beta receptor type-1 (Homo sapiens) (UniProt P36897); assay: Inhibition of human recombinant TGFbR1 at 40 nM related to control ULK1
T3 sequence (whole entry): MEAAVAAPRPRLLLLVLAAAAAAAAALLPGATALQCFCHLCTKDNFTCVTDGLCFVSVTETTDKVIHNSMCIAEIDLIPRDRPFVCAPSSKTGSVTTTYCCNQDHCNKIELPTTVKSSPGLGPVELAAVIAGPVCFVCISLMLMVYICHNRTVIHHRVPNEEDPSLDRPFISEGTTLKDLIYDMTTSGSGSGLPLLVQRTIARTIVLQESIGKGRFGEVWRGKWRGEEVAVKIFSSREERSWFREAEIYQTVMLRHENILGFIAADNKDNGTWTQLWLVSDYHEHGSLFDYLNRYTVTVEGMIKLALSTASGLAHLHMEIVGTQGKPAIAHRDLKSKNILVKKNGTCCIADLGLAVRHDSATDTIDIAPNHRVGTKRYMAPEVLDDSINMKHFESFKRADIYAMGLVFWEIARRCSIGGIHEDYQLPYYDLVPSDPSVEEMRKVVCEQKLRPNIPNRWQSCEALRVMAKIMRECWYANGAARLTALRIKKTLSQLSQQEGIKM

Sequence of Calcium/calmodulin-dependent protein kinase type 1B (Homo sapiens) (Q6P2M8 whole entry): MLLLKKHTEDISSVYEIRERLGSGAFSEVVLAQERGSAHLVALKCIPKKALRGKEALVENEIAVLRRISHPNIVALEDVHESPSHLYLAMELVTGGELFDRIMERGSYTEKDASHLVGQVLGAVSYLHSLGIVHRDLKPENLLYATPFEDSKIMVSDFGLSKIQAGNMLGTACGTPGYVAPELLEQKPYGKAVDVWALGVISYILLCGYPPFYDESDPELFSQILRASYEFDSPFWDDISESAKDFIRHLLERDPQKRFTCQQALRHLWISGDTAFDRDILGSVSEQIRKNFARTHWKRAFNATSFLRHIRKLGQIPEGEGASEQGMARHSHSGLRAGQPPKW
Sequence of Calcium/calmodulin-dependent protein kinase type 1D (Homo sapiens) (Q8IU85 whole entry, looked up): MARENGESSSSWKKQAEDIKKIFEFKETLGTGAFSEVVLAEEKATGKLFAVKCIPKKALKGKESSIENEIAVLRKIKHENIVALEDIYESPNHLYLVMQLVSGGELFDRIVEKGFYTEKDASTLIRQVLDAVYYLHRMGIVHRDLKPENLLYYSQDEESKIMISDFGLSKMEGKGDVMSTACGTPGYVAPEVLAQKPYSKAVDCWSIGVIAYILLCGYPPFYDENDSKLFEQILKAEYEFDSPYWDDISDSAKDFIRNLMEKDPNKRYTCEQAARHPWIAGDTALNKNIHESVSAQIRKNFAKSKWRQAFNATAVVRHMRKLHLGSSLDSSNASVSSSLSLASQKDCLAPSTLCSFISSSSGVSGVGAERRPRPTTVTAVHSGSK
Sequence of Protein kinase C theta type (Homo sapiens) (Q04759 whole entry, looked up): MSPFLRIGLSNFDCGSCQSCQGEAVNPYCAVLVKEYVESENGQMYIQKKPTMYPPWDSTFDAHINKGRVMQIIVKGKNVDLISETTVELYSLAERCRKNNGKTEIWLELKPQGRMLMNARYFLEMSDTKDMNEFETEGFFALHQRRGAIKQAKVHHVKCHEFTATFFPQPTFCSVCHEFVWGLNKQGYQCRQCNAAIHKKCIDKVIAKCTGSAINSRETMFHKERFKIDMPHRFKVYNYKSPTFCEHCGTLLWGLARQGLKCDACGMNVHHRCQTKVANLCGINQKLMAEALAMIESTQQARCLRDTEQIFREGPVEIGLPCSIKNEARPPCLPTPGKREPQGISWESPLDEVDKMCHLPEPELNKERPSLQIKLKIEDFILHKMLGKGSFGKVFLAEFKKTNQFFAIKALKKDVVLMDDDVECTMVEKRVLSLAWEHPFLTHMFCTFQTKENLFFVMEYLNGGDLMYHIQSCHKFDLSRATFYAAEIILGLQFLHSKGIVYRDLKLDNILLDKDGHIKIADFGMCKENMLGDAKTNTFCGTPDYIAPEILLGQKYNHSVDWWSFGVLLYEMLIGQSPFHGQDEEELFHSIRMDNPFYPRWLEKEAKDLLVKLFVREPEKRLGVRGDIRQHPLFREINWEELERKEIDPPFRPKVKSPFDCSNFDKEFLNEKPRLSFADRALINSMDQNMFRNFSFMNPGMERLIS
Sequence of Glycogen synthase kinase-3 alpha (Homo sapiens) (P49840 2-483 limits assumed): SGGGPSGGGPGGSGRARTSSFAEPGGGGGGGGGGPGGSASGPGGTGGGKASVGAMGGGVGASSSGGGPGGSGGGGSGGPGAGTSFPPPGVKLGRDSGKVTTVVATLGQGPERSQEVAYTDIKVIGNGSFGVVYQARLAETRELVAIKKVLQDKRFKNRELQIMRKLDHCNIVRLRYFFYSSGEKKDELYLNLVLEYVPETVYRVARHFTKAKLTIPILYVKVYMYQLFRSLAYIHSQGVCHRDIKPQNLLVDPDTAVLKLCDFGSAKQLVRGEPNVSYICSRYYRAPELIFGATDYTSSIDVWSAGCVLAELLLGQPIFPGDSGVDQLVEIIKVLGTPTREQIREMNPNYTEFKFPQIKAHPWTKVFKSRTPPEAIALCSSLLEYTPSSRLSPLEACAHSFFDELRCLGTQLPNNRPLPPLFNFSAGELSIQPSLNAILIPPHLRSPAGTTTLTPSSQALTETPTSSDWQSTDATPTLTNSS
Sequence of Cyclin-dependent kinase-like 1 (Homo sapiens) (Q00532 whole entry): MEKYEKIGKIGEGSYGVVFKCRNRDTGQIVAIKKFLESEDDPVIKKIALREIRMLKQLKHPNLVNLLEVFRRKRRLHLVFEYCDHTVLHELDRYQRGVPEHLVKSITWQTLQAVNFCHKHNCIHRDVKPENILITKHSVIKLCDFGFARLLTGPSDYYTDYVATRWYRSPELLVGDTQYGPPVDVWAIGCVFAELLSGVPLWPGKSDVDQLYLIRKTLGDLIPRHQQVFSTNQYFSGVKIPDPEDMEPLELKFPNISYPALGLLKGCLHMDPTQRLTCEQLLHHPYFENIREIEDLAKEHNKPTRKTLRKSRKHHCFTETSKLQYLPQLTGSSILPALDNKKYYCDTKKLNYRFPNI
Sequence of Casein kinase II subunit alpha (Homo sapiens) (P68400 whole entry, looked up): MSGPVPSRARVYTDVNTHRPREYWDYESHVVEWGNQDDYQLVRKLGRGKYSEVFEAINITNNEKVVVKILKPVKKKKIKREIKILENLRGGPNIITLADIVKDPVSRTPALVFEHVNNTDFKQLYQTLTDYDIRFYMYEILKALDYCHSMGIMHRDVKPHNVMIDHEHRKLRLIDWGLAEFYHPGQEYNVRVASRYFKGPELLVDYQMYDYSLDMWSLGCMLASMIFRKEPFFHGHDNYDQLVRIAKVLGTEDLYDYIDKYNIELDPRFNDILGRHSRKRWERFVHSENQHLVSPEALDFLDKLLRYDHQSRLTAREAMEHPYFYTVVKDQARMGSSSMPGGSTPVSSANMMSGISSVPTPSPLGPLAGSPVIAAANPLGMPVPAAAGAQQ
Sequence of Tyrosine-protein kinase Fer (Homo sapiens) (P16591 whole entry, looked up): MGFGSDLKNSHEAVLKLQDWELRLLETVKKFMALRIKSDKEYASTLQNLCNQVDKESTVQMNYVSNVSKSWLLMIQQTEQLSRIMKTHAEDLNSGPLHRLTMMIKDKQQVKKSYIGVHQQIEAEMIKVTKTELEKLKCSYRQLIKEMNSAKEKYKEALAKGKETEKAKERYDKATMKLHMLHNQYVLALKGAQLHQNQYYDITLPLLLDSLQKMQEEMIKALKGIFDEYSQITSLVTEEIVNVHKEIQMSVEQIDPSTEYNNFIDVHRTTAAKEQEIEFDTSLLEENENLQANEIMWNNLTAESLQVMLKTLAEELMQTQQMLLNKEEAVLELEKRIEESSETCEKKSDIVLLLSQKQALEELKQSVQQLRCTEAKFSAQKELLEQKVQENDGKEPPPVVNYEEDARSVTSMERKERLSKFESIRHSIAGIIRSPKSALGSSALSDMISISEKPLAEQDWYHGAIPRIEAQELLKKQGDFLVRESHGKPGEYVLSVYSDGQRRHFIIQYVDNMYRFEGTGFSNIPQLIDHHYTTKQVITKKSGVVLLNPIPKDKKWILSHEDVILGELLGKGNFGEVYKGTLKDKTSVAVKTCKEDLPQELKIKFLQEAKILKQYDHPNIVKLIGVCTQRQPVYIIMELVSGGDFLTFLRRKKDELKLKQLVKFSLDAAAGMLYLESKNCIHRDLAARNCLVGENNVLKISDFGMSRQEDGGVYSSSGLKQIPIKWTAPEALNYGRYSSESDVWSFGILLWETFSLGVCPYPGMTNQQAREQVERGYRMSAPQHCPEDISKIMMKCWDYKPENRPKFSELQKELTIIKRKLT

inhibition [1]: 0% | fold change (FC) [2]: 0
SMILES: CNC(=O)c1ccccc1Oc1nc(Nc2cc(OC)c(OC)c(OC)c2)ncc1Br

inhibition [3]: 0% | inhibition [4]: 0% | inhibition [5]: 7% | fold change (FC) [6]: 0 | fold change (FC) [7]: 0.4 | fold change (FC) [8]: 0
SMILES: CC(C)[C@H](NC(=O)c1cc(-c2cnn3cc(-c4ccc(OCCN5CCCCC5)cc4)cnc23)cs1)C(F)(F)F

inhibition [9]: 0% | fold change (FC) [10]: 0 | fold change (FC) [11]: 0.1 | fold change (FC) [12]: 0 | fold change (FC) [13]: 0
SMILES: O=C(N[C@@H](C1CC1)C(F)(F)F)c1cc(-c2cnn3cc(-c4ccc(F)cc4)cnc23)cs1
